Results as given in paper PMC3173955, “Antifungal Activities of Peptides Derived from Domain 5 of High-Molecular-Weight Kininogen” (International Journal of Peptides, 2011).
Peptide text beside a SMILES is read from it.

Assays:
[1] = test system: M. furfur ATCC 44342; format: cell-based, Malassezia furfur; details: for MIC (concentration yielding at least 95% inhibition of fungal growth): ATCC 44342, 24 h
Procedure: Malassezia furfur ATCC 44342 (CCUG 24230) was obtained from the Department of Bacteriology at Skåne University Hospital. The antifungal activity was tested in an assay described by Lopez-[…] et al., but with some minor modifications. Cells were cultured for 2 days at 37 °C in 10 mL medium containing 4% Bacto Malt Extract (Becton, Dickinson and Company, Md, USA), 1% glucose (VWR international), 1% Tween 80 (Sigma-Aldrich, St. Louis, Mo, USA) and 0.6% Bacto Peptone (Becton, Dickinson and Company, Md, USA). Cells were then washed in 1 mM sodium phosphate buffer, pH 7.4. M. furfur cells were grown in sterile 96-well microtiter plates (Costar, Corning Incorporated, Corning, USA) in a total volume of 100 μL, containing 60 μL of 1 mM sodium phosphate buffer, pH 7.4, 20 μL of culture medium, 10 μL of a 10x stock solution of the synthetic peptides, and a 10x stock solution of the fungal cell suspension, resulting in a final concentration of 1-2 × 10^5 cells/mL. Chloramphenicol was added to each well (16 μg/ml) to avoid contamination. The cells were incubated at 30°C for 24 h. To quantify the fungicidal activity, serial dilutions of the incubation mixture were plated onto agar plates and incubated 72 h at 37°C, and the number of cfu thereafter was determined by counting visible colonies. The minimal inhibitory concentration (MIC) was defined as the concentration which yielded at least 95% inhibition of fungal growth.

[2] = test system: C. parapsilosis ATCC 90018; format: cell-based, Candida parapsilosis
Procedure: C. albicans ATCC 90028 and C. parapsilosis ATCC 90018 were obtained from the Department of Bacteriology Lund at Skåne University Hospital. Cells were precultured overnight on Sabouraud-dextrose-agar (Difco, Detroit, Mich) at 28°C, inoculated in 10 mL yeast extract-peptone-dextrose (YPD) broth (Sigma-Aldrich, St. Louis, Mo USA) at 28°C, and grown to mid-logarithmic phase. The cells were washed three times and diluted in 10 mM Tris, pH 7.4. Fifty μL of a suspension containing 1 × 10^6 fungal colony-forming units (cfu)/mL was incubated at 28°C for two hours with rD5, HKH20 at concentrations ranging from 0.3 μM to 60 μM, or the peptides HKH20, GKH17, GKH17WWW, and GKH17WWWWW at a concentration of 30 μM. To quantify the fungicidal activity, serial dilutions of the incubation mixture were plated onto Sabouraud-dextrose-agar plates (Difco, Detroit, Mich) and incubated for 48 h at 28°C, and the number of cfu were thereafter determined by counting visible colonies. Activity of 30 μM HKH20, GKH17, GKH17WWW, and GKH17WWWWW peptides against Candida was also tested in physiological salt conditions (0.15 M NaCl in 10 mM Tris, pH 7.4) in presence of 20% as well as 50% human plasma, and 50% human serum (in 0.15 M NaCl, 10 mM Tris, pH 7.4) (Figure 3). […]

[3] = test system: C. parapsilosis ATCC 90018; test: Radial diffusion assay (RDA); format: cell-based, Candida parapsilosis; details: 6 μl of peptide per well (Figure 2(b))
Procedure: Radial diffusion assay (RDA) was performed as described by Lehrer et al. with some minor modifications. Candida was grown for 16 h at 28°C in 10 mL YPD to obtain yeast form organisms. The culture was centrifuged at 2000 ×g for 10 min then washed three times with 10 mM Tris, pH 7.4. A volume containing 1 × 10^5 cfu was added to 5 mL of previously autoclaved, 42°C, underlay agarose gel that contained 1.5 mg of Tryptic Soy Broth (TSB) base, 50 mg of low-electroendosmosistype (Low-EEO) agarose type I (A-6013-25G) (Sigma-Aldrich Inc, St. Louis, Mo, USA), and 1 μL of Tween 20 (0.02% w/v) (Sigma Chemical Co.) dissolved in 10 mM Tris, pH 7.4. The fungi were directly dispensed into the agar and mixed with a vortex mixer for 10 seconds and then quickly poured out into a petri dish, 85 mm in diameter. Wells, 4 mm in diameter, were punched, and each well was then filled up with 6 μL of test sample. After incubation at 35–37°C for 3 h, 5 mL of overlay agarose gel, consisting of 300 mg TSB, 50 mg Low-EEO agarose dissolved in distilled sterilized water, was poured out on top of the underlay gel. The clear zone surrounding the wells, indicating antifungal activity, was measured after 18–24 h of incubation at 28°C. HMWK degradation products were tested for RDA inhibitory effects (Figure 1(b)). […]

[4] = test system: C. albicans ATCC 90028; test: Radial diffusion assay (RDA), low salt; format: cell-based, Candida albicans; details: 6 μL at 100 μM; for Antifungal activity in RDA: low salt conditions (Figure 2(c))
Procedure: Radial diffusion assay (RDA) was performed as described by Lehrer et al. with some minor modifications. Candida was grown for 16 h at 28°C in 10 mL YPD to obtain yeast form organisms. The culture was centrifuged at 2000 ×g for 10 min then washed three times with 10 mM Tris, pH 7.4. A volume containing 1 × 10^5 cfu was added to 5 mL of previously autoclaved, 42°C, underlay agarose gel that contained 1.5 mg of Tryptic Soy Broth (TSB) base, 50 mg of low-electroendosmosistype (Low-EEO) agarose type I (A-6013-25G) (Sigma-Aldrich Inc, St. Louis, Mo, USA), and 1 μL of Tween 20 (0.02% w/v) (Sigma Chemical Co.) dissolved in 10 mM Tris, pH 7.4. The fungi were directly dispensed into the agar and mixed with a vortex mixer for 10 seconds and then quickly poured out into a petri dish, 85 mm in diameter. Wells, 4 mm in diameter, were punched, and each well was then filled up with 6 μL of test sample. After incubation at 35–37°C for 3 h, 5 mL of overlay agarose gel, consisting of 300 mg TSB, 50 mg Low-EEO agarose dissolved in distilled sterilized water, was poured out on top of the underlay gel. The clear zone surrounding the wells, indicating antifungal activity, was measured after 18–24 h of incubation at 28°C. HMWK degradation products were tested for RDA inhibitory effects (Figure 1(b)). Human leukocyte (neutrophil) elastase (HLE) and freeze-thaw-disrupted polymorphonuclear neutrophils (PMNs) at equivalent concentrations as used in the HMWK degradation were incubated at 37°C for 60 minutes and added as controls (Figure 1(b)).

[5] = Liposome leakage assay (carboxyfluorescein release); details: DOPC/sterol 60/40 mol/mol, 10 μM lipid in 10 mM Tris, 5 mM glucose, pH 7.4, 37°C, CF fluorescence at 520 nm, at least duplicate (Figure 4)
From the text: The liposomes investigated were zwitterionic DOPC/cholesterol (60/40 mol/mol) or DOPC/ergosterol (60/40 mol/mol). DOPC (1,2-Dioleoyl-sn-Glycero-3-Phosphatidylcholine) was from Avanti Polar Lipids (Alabaster, USA) and of >99% purity, while ergosterol and cholesterol (>99% purity) were from Sigma-Aldrich (St. Louis, USA). Due to the long, symmetric, and unsaturated acyl chains of DOPC, several methodological advantages are reached. In particular, membrane cohesion is good, which facilitates very stable unilamellar liposomes, allowing detailed values on leakage to be obtained. The lipid mixtures were dissolved in chloroform, after which solvent was removed by evaporation under vacuum overnight. Subsequently, 10 mM Tris buffer, pH 7.4, was added together with 0.1 M carboxyfluorescein (CF) (Sigma, St. Louis, USA). After hydration, the lipid mixture was subjected to eight freeze-thaw cycles consisting of freezing in liquid nitrogen and heated to 60°C. Unilamellar liposomes of about Ø140 nm were generated by multiple extrusions through polycarbonate filters (pore size 100 nm) mounted in a LipoFast miniextruder (Avestin, Ottawa, Canada) at 22°C. […] CF release from the liposomes was determined by monitoring the emitted fluorescence at 520 nm from a liposome dispersion (10 μM lipid in 10 mM Tris, 5 mM glucose, pH 7.4). […]

## NCCCC[C@H](NC(=O)CNC(=O)[C@H](CC(N)=O)NC(=O)[C@H](CCCCN)NC(=O)[C@H](CCCCN)NC(=O)CNC(=O)[C@H](CCCCN)NC(=O)[C@H](CC(N)=O)NC(=O)[C@H](CCCCN)NC(=O)[C@H](Cc1c[nH]cn1)NC(=O)[C@H](CCCCN)NC(=O)CNC(=O)[C@H](Cc1c[nH]cn1)NC(=O)CNC(=O)[C@H](Cc1c[nH]cn1)NC(=O)CNC(=O)[C@H](Cc1c[nH]cn1)NC(=O)[C@H](CCCCN)NC(=O)[C@@H](N)Cc1c[nH]cn1)C(=O)N[C@@H](Cc1c[nH]cn1)C(=O)O [HKH20] (H-HKHGHGHGKHKNKGKKNGKH-OH; N-terminus and C-terminus assumed)
[1]; 10 μM or 30 μM, 24 h (Figure 2(e))
  Antifungal activity against M. furfur at fixed concentrations: antifungal at 10 and 30 μM
[1]
  MIC (concentration yielding at least 95% inhibition of fungal growth): 2.5 to 5 µM
[2]; 0.3 μM to 60 μM, 1 × 10^6 cfu/mL, 2 h at 28°C, 10 mM Tris pH 7.4 (Figure 2(a))
  Antifungal activity in viable count assay: potent antifungal activity
[2]; ATCC 90018, 48 h, 30 μM, pH 7.4
  Candida cells killed (time-dependent killing): > 80%
[3]
  Inhibitory activity in RDA compared with reference peptides: significantly higher inhibitory activity on Candida, when compared with LL-37
[4]
  Antifungal activity in RDA: showed antifungal activity
[4]; low salt, P < 0.05 (Figure 2(c))
  Inhibitory activity in RDA in comparison to LL-37: significantly more potent inhibitory activity on Candida, in comparison to LL-37

## GKHKNKGKKNGKHNGWKWWW [GKH17WWW, GKH17 hydrophobically end-tagged with three W residues at the C-terminal]
[5]
  Membrane-disruptive potency, ergosterol- versus cholesterol-containing liposomes: higher for ergosterol-containing liposomes than for cholesterol-containing ones

## NCCCC[C@H](NC(=O)[C@H](Cc1c[nH]c2ccccc12)NC(=O)CNC(=O)[C@H](CC(N)=O)NC(=O)[C@H](Cc1c[nH]cn1)NC(=O)[C@H](CCCCN)NC(=O)CNC(=O)[C@H](CC(N)=O)NC(=O)[C@H](CCCCN)NC(=O)[C@H](CCCCN)NC(=O)CNC(=O)[C@H](CCCCN)NC(=O)[C@H](CC(N)=O)NC(=O)[C@H](CCCCN)NC(=O)[C@H](Cc1c[nH]cn1)NC(=O)[C@H](CCCCN)NC(=O)CN)C(=O)O [GKH17] (H-GKHKNKGKKNGKHNGWK-OH)
[1]
  MIC (concentration yielding at least 95% inhibition of fungal growth): 5 to 10 µM

## GGHVLDHGHKHKHGHGHGKH [GGH20]
[4]
  Antifungal activity in RDA: showed antifungal activity
